Data taken from patent US20180296537A1, “METHODS AND COMPOSITIONS FOR DIAGNOSING, TREATING, AND MONITORING TREATMENT OF SHANK3 DEFICIENCY ASSOCIATED DISORDERS” (Novartis AG, priority 2015, published 2018).

System: PMDS iPS-derived neurons
Experiment: sEPSC recordings from iPS-derived PMDS neurons
Type: cell-based, human
Source text: Primary human dermal fibroblasts from neonatal (Invitrogen, Carlsbad, Calif.) and adults (University of Milano, Dr. Sala) were taken for reprogramming using the CytoTune-iPS reprogramming kit (Life Technologies, Carlsbad, Calif.) according to the standard protocol. Colonies with hallmark of pluripotent morphology were readily visible between days 17 and 20 after transduction. These were picked and subcloned multiple times on plates coated with Matrigel (BD Biosciences, San Jose, Calif.) in mTeSR medium until Sendai virus RNA could no longer be detected and the morphology looked stable. […] Karyotype analyses was performed by full-genome SNP analyses by Life&Brain Gmbh (Bonn). […] Neuronal precursors were differentiated from iPS cells by using a modified dual SMAD inhibition as described earlier (Chambers et al., 2009; Pecho-Vrieseling et al., 2014). Briefly, […] undifferentiated hiPSC were seeded in an ULA 96-well in 0.1 ml neural induction medium (20% knockout-serum replacement (Invitrogen), 0.1 mM MEM non-essential amino acids (Invitrogen), 0.1 mM 2-mercaptoethanol (Invitrogen), 75% […] (Invitrogen Gibco); Pen/Strep, 10 ng ml bhFGF (1:1,000, Invitrogen), 10 μM SB 431542 (1:1,000) (Tocris, Bristol, UK) and 1 μM LDN 193189 (1:10,000) (Stemgent) with 10 μM Rock inhibitor to prevent apoptosis (Calbiochem, Darmstadt, Germany). Two days later 0.1 ml of fresh induction media was added to the old one. The next day 30 embryoid bodies (EB) were transferred to a 35 mm matrigel dish with induction media. At day 10 EB's were cleaned to have only neuronal rosettes left. […]
Whole cell patch-clamp recordings were excluded if the access resistance exceeded 13 MΩ and changed more than 20% during the recordings. Data were recorded with a MultiClamp 700B (Molecular Devices) amplifier, filtered at 0.2 kHz, and digitised at 10 kHz. Data were acquired and analysed with Clampex 10.0, Clampfit 10.0 (Molecular Devices) and the Mini Analysis Program (Synaptosoft, Decatur, Ga.). […]

[1] = PMDS neurons, eight weeks in vitro, overnight treatment

SMILES | frequency of spontaneous EPSCs (sEPSCs) [1] | frequency of spontaneous EPSCs (sEPSCs) (neurons from second PMDS patient (PMDS-2))
CCN1/C(=C/C(C)=O)Sc2ccc(OC)cc21 [TG003, (Z)-1-(3-ethyl-5-methoxy-2,3-dihydrobenzothiazol-2-ylidene)propan-2-one] | completely rescued this impairment | 
CCOC(=O)C1=C(N)Oc2ccc(Cl)cc2C1C(C#N)C(=O)OCC (stereo not drawn) [SC79] | completely rescued this impairment | restorative effect of SC79 was also observed
